Experimental data published in US20250241923A1, “A DUAL SELECTIVE PI3K DELTA AND GAMMA INHIBITORS AND/OR A SALT-INDUCIBLE KINASE 3 INHIBITOR FOR TREATING SOLID TUMORS” (Incozen Therapeutics Pvt. Ltd, priority 2022, published 2025).

Experiments:
[1] = test system: OVCAR-3 ovarian cancer cell lines; experiment: Anti-proliferative activity with PARP inhibitors, OVCAR-3; type: cell-based; conditions: Homo sapiens, read-out: growth inhibition
MCF-7 cell lines = experiment: Cell proliferation (MTT), Compound M and olaparib, MCF-7; type: cell-based; conditions: Homo sapiens, MCF7, olaparib alone (5 μM, FIG. 5), 72 h, read-out: growth inhibition
Protocol: • MCF-7 cells were plated in MEM+10% FBS complete media at pre-determined density in a 96-well plate. • Cells were exposed to either DMSO (control) alone, Compound M alone, olaparib alone, or a combination of Compound M and olaparib. • Cells were incubated for 72 h in presence of the inhibitors. • MTT reaction was performed to determine the cell viability at the end of the treatment period and absorbance was measured at wavelength 560 and 640 nM. • % cell growth inhibitions were calculated, and Tukey's analysis was performed using GraphPad Prism to compare the treated groups.

[2] = test system: ZR.75.1 breast cancer cell line; experiment: Anti-proliferative effect of taxol (Example 10), ZR.75.1; type: cell-based; conditions: taxol alone (Example 10)
[3] = test system: MCF-7 breast cancer cell line; experiment: Anti-proliferative effect of taxol (Example 10), MCF-7; type: cell-based; conditions: taxol alone (Example 10)
[4] = test system: MDA-MB-231 breast cancer cell lines; experiment: cells; conditions: Homo sapiens, MDA-MB-231, 72 h, read-out: growth inhibition
[5] = test system: MDA-MB-231 breast cancer cell line; experiment: Anti-proliferative effect of taxol (Example 10), MDA-MB-231; type: cell-based; conditions: taxol alone (Example 10)
[6] = test system: SK-OV-3 ovarian cancer cell line; experiment: Anti-proliferative effect of taxol and Compound (M) (Example 10), SK-OV-3; type: cell-based; conditions: Homo sapiens, taxol alone (6 nM, FIG. 7), read-out: growth inhibition
[7] = test system: MCF-7 breast cancer cell lines; experiment: cells; conditions: Homo sapiens, MCF7, 72 h, read-out: growth inhibition
[8] = test system: SK-OV-3 ovarian cancer cell lines; experiment: Anti-proliferative activity with PARP inhibitors, SK-OV-3; type: cell-based; conditions: Homo sapiens, single agent talazoparib (3 μM, FIG. 6B), read-out: growth inhibition

O=C(c1cc(Cc2n[nH]c(=O)c3ccccc23)ccc1F)N1CCN(C(=O)C2CC2)CC1 [Olaparib]
inhibition at 3 µM ([1]; olaparib alone (3 μM, FIG. 6C)): 29.3%
inhibition at 5 µM (MCF-7 cell lines): 43.2%

CC(=O)O[C@H]1C(=O)[C@@]2(C)[C@H]([C@H](OC(=O)c3ccccc3)[C@]3(O)C[C@H](OC(=O)[C@H](O)[C@@H](NC(=O)c4ccccc4)c4ccccc4)C(C)=C1C3(C)C)[C@]1(OC(C)=O)CO[C@@H]1C[C@@H]2O [Taxol]
growth inhibition [2]: 25.8%
growth inhibition [3]: 17.3%
inhibition at 0.003 µM [4]: 34.5%
growth inhibition [5]: 44.4%
inhibition at 0.006 µM [6]: 59.2%
inhibition at 0.003 µM [7]: 28.8%

Cn1ncnc1[C@H]1c2n[nH]c(=O)c3cc(F)cc(c23)N[C@@H]1c1ccc(F)cc1 [talazoparib]
inhibition at 0.1 µM ([1]; single agent talazoparib (0.1 μM, FIG. 6A)): 40.2%
inhibition at 3 µM [8]: 50%
